Laboratory results taken from patent US6974820B2, “Methods for treating urinary incontinence and other disorders using trospium” (Bridge Pharma, Inc., priority 2002, dated 2005).
Where two headings read alike, the source gives them in different places.

Assays:
[1] = test system: QTc interval of the ECG; experiment: Cardiac side effects: QTc interval of the ECG in anesthetized guinea pigs; conditions: for Prolongation of the QTc interval of the ECG (in words): intravenous infusion; for ΔQTc (%): intravenous infusion over 30 min
[2] = target: T1, CYP 2D6 (Homo sapiens, UniProt P10635)
T1 sequence (P10635 whole entry): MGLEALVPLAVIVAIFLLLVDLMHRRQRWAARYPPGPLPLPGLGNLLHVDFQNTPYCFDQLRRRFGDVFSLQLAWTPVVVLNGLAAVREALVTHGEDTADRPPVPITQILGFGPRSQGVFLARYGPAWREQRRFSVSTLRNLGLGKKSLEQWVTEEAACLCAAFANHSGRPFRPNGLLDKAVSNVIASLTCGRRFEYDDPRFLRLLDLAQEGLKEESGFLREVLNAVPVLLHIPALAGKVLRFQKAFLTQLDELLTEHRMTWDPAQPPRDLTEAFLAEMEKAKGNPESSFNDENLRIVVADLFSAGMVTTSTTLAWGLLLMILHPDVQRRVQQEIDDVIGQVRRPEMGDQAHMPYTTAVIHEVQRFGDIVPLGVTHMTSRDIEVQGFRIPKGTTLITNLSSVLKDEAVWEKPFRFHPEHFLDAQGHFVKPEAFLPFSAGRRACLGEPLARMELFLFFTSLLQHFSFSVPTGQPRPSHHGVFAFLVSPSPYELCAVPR

[3] = target: T2, human recombinant muscarinic receptor M-4 (Homo sapiens, UniProt P08173); type: binding
T2 construct: expressed in transfected cells; host or cells: SF9 insect cells (membranes)
T2 sequence (P08173 1-479): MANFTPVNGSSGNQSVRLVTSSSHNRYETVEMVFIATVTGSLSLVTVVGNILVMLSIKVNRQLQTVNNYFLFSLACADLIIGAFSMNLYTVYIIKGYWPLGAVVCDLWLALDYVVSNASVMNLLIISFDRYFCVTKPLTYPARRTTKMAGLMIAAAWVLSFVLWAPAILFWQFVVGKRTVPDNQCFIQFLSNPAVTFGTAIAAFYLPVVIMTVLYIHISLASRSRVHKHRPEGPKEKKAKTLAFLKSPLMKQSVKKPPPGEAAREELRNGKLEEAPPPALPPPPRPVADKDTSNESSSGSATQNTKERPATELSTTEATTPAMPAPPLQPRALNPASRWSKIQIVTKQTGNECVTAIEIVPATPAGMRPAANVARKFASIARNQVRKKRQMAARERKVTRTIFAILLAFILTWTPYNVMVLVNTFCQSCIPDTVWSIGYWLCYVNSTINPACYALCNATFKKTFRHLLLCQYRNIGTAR

[4] = target: T3, human recombinant muscarinic receptor M-1 (Homo sapiens, UniProt P11229); experiment: biochemical; type: binding
T3 construct: expressed in transfected cells; host or cells: SF9 insect cells (membranes)
T3 sequence (P11229 1-460): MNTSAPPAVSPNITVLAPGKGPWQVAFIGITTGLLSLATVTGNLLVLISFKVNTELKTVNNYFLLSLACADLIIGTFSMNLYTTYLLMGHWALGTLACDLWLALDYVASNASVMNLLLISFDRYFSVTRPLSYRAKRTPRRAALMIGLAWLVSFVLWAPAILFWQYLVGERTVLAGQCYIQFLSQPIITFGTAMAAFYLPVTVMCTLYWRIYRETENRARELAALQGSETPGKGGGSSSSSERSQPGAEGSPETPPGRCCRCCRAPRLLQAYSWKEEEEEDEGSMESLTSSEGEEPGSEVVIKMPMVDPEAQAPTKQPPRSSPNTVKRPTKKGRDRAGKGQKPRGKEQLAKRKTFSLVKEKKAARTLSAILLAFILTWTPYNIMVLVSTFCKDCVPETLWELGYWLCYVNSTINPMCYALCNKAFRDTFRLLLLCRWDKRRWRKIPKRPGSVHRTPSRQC

[5] = target: T4, human recombinant muscarinic receptor M-3 (Homo sapiens, UniProt P20309); experiment: biochemical; type: binding
T4 construct: expressed in transfected cells; host or cells: SF9 insect cells (membranes)
T4 sequence (P20309 whole entry): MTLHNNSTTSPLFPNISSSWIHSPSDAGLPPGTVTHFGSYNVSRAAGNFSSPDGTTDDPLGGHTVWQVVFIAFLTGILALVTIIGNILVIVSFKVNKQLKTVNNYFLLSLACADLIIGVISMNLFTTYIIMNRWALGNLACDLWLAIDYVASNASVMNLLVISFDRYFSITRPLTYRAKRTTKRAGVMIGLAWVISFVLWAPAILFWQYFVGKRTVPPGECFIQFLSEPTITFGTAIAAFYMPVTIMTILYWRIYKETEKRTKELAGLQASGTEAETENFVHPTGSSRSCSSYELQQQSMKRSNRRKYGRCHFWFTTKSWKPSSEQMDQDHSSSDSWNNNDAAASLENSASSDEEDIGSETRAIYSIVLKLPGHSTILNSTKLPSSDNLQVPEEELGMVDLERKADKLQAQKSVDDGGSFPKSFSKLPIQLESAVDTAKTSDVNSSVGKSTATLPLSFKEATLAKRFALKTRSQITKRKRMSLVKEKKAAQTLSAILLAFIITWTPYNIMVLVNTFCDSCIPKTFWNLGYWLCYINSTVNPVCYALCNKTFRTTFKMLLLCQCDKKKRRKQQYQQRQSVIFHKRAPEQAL

[6] = target: T1, CYP 2D6; experiment: biochemical

## CCN(CC)CC#CCOC(=O)C(O)(c1ccccc1)C1CCCCC1 (stereo not shown) [Oxybutynin]
[1]
  Prolongation of the QTc interval of the ECG (in words): statistically significant prolongation
  ΔQTc (%): +12 ± 2%
[2]
  Inhibition of CYP 2D6 isoenzyme metabolism (in words): potently inhibit

## CC(CC(c1ccccc1)c1ccccc1)NC(C)(C)C (stereo not shown) [Terodiline]
[1]
  Prolongation of the QTc interval of the ECG (in words): statistically significant prolongation
  ΔQTc (%): +11 ± 1%

## Cc1ccc(O)c([C@H](CCN(C(C)C)C(C)C)c2ccccc2)c1 [Tolterodine]
[3]; membranes of SF9 cells expressing human recombinant receptor, read-out: Affinity (negative logarithm of the dissociation constant Ki) M-4 (converted)
  Ki: 20 nM
[1]
  Prolongation of the QTc interval of the ECG (in words): statistically significant prolongation
  ΔQTc (%): +16 ± 1%
[4]
  Ki: 1.58 nM

## O=C(O[C@H]1C[C@H]2CC[C@@H](C1)[N+]21CCCC1)C(O)(c1ccccc1)c1ccccc1 [Trospium, 3α-hydroxy-spiro[1αH,5αH-nortropane-8,1′-pyrrolidinium] chloride benzilate]
[5]
  Ki: 0.501 nM
[3]
  Ki: 1 nM
[1]
  Prolongation of the QTc interval of the ECG (in words): no effects
  ΔQTc (%): −2 ± 1%
[4]
  Ki: 0.794 nM
[6]
  IC50: ~20000 nM

## CC(C)(C)c1ccc(C(O)CCCN2CCC(C(O)(c3ccccc3)c3ccccc3)CC2)cc1 (stereo not shown) [terfenadine]
[1]
  Prolongation of the QTc interval of the ECG (in words): caused QT-prolongation
